Results published in BindingDB's records for doi:10.1016/j.bioorg.2017.03.014 (University of Karachi, 2017).

How the values were obtained:
Carbonic anhydrase 2 [1] = molecular target: T1, Carbonic anhydrase 2 (Bos taurus, UniProt P00921); assay: Carbonic Anhydrase II Inhibition Assay; details: pH 7.4; 25 °C
Description: In this assay, 4-nitrophenyl acetate (4-NPA), a colorless compound, was hydrolyzed to 4-nitrophenol and […]. The reaction was followed by measuring the formation of 4-nitrophenol, a yellow colored compound. The reaction was performed at 25 °C inbuffer containing HEPES and Tris-HCl at a total concentration of 20 mM and pH of 7.4 for each sample. The reaction mixture contained 140 μL of the HEPES-tris solution, 20 μL of freshly prepared aqueous solution of purified bovine erythrocyte CA-II (0.1 mg/mL of deionized water for 96-well), 20 μL of test compound in DMSO (10% final concentration), 20 μL of substrate 4-NPA at a concentration of 0.7 mM diluted in ethanol. The reaction was initiated by addition of 4-NPA after 15 min incubation of test compound, and each compound was tested 3-times at different concentrations. In this assay, the reaction was performed using 96-well plates.

Carbonic anhydrase 2 [2] = molecular target: T1, Carbonic anhydrase 2; assay: Carbonic Anhydrase II Kinetic Assay; details: pH 7.4
Description: Kinetic studies were performed by using different concentration of inhibitors over different concentrations of substrate (4-NPA) such as 0.175, 0.35, 0.70 and 1.40 mM. The enzyme 0.2 mg/mL concentration for each well was used after dissolving in de-ionized water. HEPES-tris ammonia was used as buffer at pH of 7.4. The change in absorbance was measured by keeping the 96-well flat bottom plate in ELISA reader (Spectra max 384, Molecular Devices USA) after addition of substrate for a period of 30 min at 25 °C with 1 min interval.

T1 sequence (P00921 whole entry): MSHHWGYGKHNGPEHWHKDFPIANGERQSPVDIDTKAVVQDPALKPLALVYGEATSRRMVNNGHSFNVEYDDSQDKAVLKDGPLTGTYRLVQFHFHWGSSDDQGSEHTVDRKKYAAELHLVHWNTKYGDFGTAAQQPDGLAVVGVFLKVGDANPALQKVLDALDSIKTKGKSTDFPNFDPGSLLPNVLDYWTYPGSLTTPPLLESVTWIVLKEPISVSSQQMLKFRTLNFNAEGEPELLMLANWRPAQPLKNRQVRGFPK

| IC50 (Carbonic anhydrase 2 [1]) | Ki (Carbonic anhydrase 2 [2]) | Structure (SMILES) |
| --- | --- | --- |
| 2670 nM | – | O=C(N/N=C/c1ccc(Cl)cc1Cl)N/N=C/c1ccc(Cl)cc1Cl [N'',N'''-Bis[(E)-(2,4-dichlorophenyl)methylidene]carbonic dihydrazide (8)] |
| 1460 nM | 1780 nM | O=C(N/N=C/c1c(Cl)cccc1Cl)N/N=C/c1c(Cl)cccc1Cl [N'',N'''-Bis[(E)-(2,6-dichlorophenyl)methylidene]carbonic dihydrazide (9)] |
| 3960 nM | – | O=C(N/N=C/c1ccccc1Br)N/N=C/c1ccccc1Br [N'',N'''-Bis[(E)-(2-bromophenyl)methylidene]carbonic dihydrazide (5)] |
| 1370 nM | 3580 nM | O=C(N/N=C/c1cc([N+](=O)[O-])ccc1Cl)N/N=C/c1cc([N+](=O)[O-])ccc1Cl [N'',N'''-Bis[(E)-(2-chloro-5-nitrophenyl)methylidene]carbonic dihydrazide (3)] |
| 2330 nM | 4120 nM | O=C(N/N=C/c1ccccc1Cl)N/N=C/c1ccccc1Cl [N'',N'''-Bis[(E)-(2-chlorophenyl)methylidene]carbonic dihydrazide (7)] |
| 1850 nM | 1810 nM | O=C(N/N=C/c1ccccc1[N+](=O)[O-])N/N=C/c1ccccc1[N+](=O)[O-] [N'',N'''-Bis[(E)-(2-nitrophenyl)methylidene]carbonic dihydrazide (2)] |
| 2320 nM | 2520 nM | O=C(N/N=C/c1ccc(Br)cc1)N/N=C/c1ccc(Br)cc1 [N'',N'''-Bis[(E)-(4-bromophenyl)methylidene]carbonic dihydrazide (4)] |
| 1330 nM | 2350 nM | O=C(N/N=C/c1ccc([N+](=O)[O-])cc1)N/N=C/c1ccc([N+](=O)[O-])cc1 [N'',N'''-Bis[(E)-(4-nitrophenyl)methylidene]carbonic dihydrazide (1)] |
